Measurements as given in ChEMBL document CHEMBL1152142, “Validation of high-affinity binding sites for succinic acid through distinguishable binding of gamma-hydroxybutyric acid receptor-specific NCS 382 antipodes” (Bioorg Med Chem Lett, 2008).
Calls of active or inactive are those of the source. No cut-off for these calls is given here.

Assays:
[1] = biological target: T1, Gamma-hydroxybutyrate receptor (Rattus norvegicus) (UniProt Q6RY99); experiment: Binding affinity to gamma-hydroxybutyrate binding site of gamma-hydroxybutyrate receptor in rat forebrain synaptic membranes at 100 uM; type: cell membranes; settings: Membrane
T1 sequence (whole entry): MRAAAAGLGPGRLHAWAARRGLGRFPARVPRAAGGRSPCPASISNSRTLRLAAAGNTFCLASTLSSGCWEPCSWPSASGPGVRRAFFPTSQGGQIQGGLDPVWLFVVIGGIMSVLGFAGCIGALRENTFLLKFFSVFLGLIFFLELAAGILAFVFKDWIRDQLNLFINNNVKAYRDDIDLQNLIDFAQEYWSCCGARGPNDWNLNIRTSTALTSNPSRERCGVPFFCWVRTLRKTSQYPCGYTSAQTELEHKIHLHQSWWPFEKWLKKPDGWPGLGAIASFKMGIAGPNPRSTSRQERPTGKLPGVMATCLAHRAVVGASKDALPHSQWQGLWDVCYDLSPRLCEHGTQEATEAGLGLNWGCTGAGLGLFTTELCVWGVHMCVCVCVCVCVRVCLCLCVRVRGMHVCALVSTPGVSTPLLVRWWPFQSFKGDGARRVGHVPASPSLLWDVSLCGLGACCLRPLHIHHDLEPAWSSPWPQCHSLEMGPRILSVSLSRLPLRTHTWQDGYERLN

[2] = biological target: T1, Gamma-hydroxybutyrate receptor (Rattus norvegicus); experiment: Binding affinity to succinic acid binding site of gamma-hydroxybutyrate receptor in rat forebrain synaptic membranes at 100 uM; type: cell membranes; settings: Membrane
[3] = biological target: Calcium/calmodulin-dependent protein kinase type II subunit alpha (Rattus norvegicus, UniProt P11275); experiment: Displacement of [3H]GHB from gamma-hydroxybutyrate binding site of gamma-hydroxybutyrate receptor in rat forebrain synaptic membranes; type: cell membranes, Membrane
[4] = biological target: T2, Gamma-hydroxybutyrate receptor (Rattus norvegicus, UniProt Q6RY99); experiment: Displacement of [3H]SUC from succinic acid binding site of gamma-hydroxybutyrate receptor in rat forebrain synaptic membranes
T2 sequence (Q6RY99 whole entry): T1 sequence (whole entry)

Sequence of Calcium/calmodulin-dependent protein kinase type II subunit alpha (P11275 whole entry): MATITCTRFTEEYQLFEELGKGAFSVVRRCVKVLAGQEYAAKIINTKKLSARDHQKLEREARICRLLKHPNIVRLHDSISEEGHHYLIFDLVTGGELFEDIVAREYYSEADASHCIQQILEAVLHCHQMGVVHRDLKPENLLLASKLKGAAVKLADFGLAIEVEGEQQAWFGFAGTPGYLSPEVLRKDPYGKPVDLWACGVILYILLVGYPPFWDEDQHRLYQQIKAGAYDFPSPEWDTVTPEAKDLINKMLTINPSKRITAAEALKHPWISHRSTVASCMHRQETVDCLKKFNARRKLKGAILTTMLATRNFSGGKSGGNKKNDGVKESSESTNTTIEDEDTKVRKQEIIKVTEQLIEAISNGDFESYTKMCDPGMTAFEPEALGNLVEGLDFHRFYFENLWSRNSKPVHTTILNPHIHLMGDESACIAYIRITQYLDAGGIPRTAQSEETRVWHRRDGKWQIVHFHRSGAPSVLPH

| Structure (SMILES) | Activity [1] | Activity [2] | IC50 [3] [µM] | IC50 [4] [µM] |
| --- | --- | --- | --- | --- |
| O=C(O)[C@@H]1C[C@H](O)CCN1 | inactive | inactive | – | – |
| O=C(O)/C=C1\CCCc2ccccc2[C@@H]1O | – | – | 0.8 | 0.4 |
| O=C(O)[C@H]1C[C@H](O)CCN1 | inactive | inactive | – | – |
| O=C(O)/C=C1\CCCc2ccccc2[C@H]1O | – | – | 93 | 74 |
| O=C(O)/C=C1\CCCc2ccccc2C1O (racemic) | – | – | 0.9 | 0.5 |

Second part, the compound after the results:

| Activity [1] | Activity [2] | IC50 [3] [µM] | IC50 [4] [µM] | Structure (SMILES) |
| --- | --- | --- | --- | --- |
| inactive | inactive | – | – | COC(=O)[C@H]1C[C@H](O)CCN1 |
| inactive | inactive | – | – | COC(=O)[C@@H]1C[C@H](O)CCN1 |
| 30% | 26% | – | – | O=C(O)[C@H]1C[C@@H](O)CCN1 |
